Measurements from patent publication US20230390386A1, “REPLICATION-DEFECTIVE VACCINES AND USES THEREOF” (priority 2020, published 2023).

Assays:
[1] = tested on: AD169-GFP; assay: AD169-GFP fluorescence microscopy in ARPE-19 cells after CM treatment of virus; assay type: cell-based, human cytomegalovirus
Protocol: Fluorescence microscopy: The AD169-GFP viruses were incubated with 100 μM, 10 μM, 1.0 μM, and 0.1 μM of centanamycin as described above. After treatment, the AD169-GFP viruses were washed 3 times with the cDMEM and added to the ARPE-19 cells at an MOI of 0.05. The virus growth was analyzed every day by fluorescence microscopy. In a control experiment, the viruses were only treated with the PET vehicle.
To understand the pathology of CM treated virus, a GFP-expressing human cytomegalovirus, AD169-GFP, was used with microscopic imaging to visually assess the ability of treated viruses to infect cell.

[2] = tested on: HCMV gDNA; assay: Analysis of CM-treated viral gDNA (agarose gel, EcoR1 digestion, 50° C. incubation); design: species or system human cytomegalovirus
Protocol: Analysis of CM and viral gDNA: To see any effect of CM on the HCMV gDNA, the gDNA was analyzed by agarose gel electrophoresis, restriction digestion, and thermal incubation at 50° C. The HCMV was grown in ARPE-19 cells and virus particles were purified through sucrose gradient using ultracentrifugation. HCMV gDNA was extracted and concentration was determined by OD at 260/280. Approximately, 10 μg of HCMV gDNA was incubated with 10 μM CM at RT for 1 hour and 10 μg of HCMV gDNA was treated with vehicle control without CM. The treated gDNA was analyzed by the agarose gel electrophoresis to see any effect of CM on the HCMV gDNA. In a separate experiment, the […] treated HCMV gDNA was incubated at 50° C. for 30 minutes to check the alkylation of DNA is thermolabile or not. Untreated HCMV gDNA was also treated similarly. In another, 3 μg of CM treated and untreated HCMV gDNA was digested with EcoR1 overnight at 37° C. and analyzed by 0.6% agarose gel electrophoresis.
To understand the mechanism behind CM mediated attenuation of the virus, CM-treated viral gDNA was analyzed using agarose gel electrophoresis, restriction digestion, and heat-labile fragmentation assays. The AD169 viral gDNA was treated with 1 μM CM for two hours at RT and then separated with a 0.6% agarose gel. Untreated AD169 viral gDNA was used as a control. […] To further understand the effect of CM on the viruses, viral gDNA was isolated and treated with CM for two hours at RT followed by digestion with the restriction enzymes EcoR1. […] However, the CM treated viruses were alkylated efficiently as compared to the control which was observed by the DNA fragmentation during incubation at 50° C. while control untreated viruses have intact DNA (FIG. 3C).

[3] = tested on: MCMV-Luc; assay: MCMV-Luc growth curve in NIH 3T3 cells after CM treatment; assay type: cell-based, mouse cytomegalovirus; conditions: two hours at RT, MOI 0.1
Protocol: Previous studies in the current disclosure had been conducted in vitro. […] This study would identify a CM concentration required to attenuate the MCMV. For this assay, a luciferase-expressing version of MCMV, MCMV-Luc was used, and viral growth was measured as photon counts during intravital imaging using an in vivo imaging system (IVIS). The MCMV-Luc was treated with different concentrations of CM at RT for two hours and then added to NIH 3T3 cells established in 24 well plates in triplicate at a multiplicity of infection (MOI) of 0.1. The MCMV growth curve was determined by measuring the luciferase expression every 24 h using IVIS. […] This information was used to perform In vivo analysis of CM effect on the MCMV replication in the mice.

[4] = tested on: MCMV-Luc; assay: In vivo analysis of CM treated MCMV-Luc injected into mice (IVIS); conditions: 1×10^5 pfu intraperitoneally
Protocol: In vivo experiments: To check the efficacy of CM in the animal model, mouse cytomegalovirus expressing the luciferase gene (MCMVLuc) was used. […] The 25×10^6 PFU/ml of MCMVLuc viruses were treated with 10 μM, 1.0 μM, and 0.1 μM of CM for two hours at room temperature. The MCMVLuc viruses were washed with RPMI to remove CM and suspended in 1 ml of incomplete RPMI. Thereafter, 200 μl of the CM treated MCMVLuc was injected into five mice per group. The luciferase activity was measured every other day using bioluminescence assay by an in vivo imaging system (IVIS). Briefly, the mice were anesthetized using isoflurane and injected with the luciferin substrate. The injected mice were incubated at RT for five minutes and luciferase activity was determined using IVIS. In control experiments, the MCMVLuc viruses were treated with PET only and followed in a similar way as described above.
The MCMV-Luc virus was purified using a sucrose gradient and titrated. Following purification, 5×10^5 pfu of MCMV-Luc was treated with 10 μM, 1 μM and 0.1 μM of CM for 2 hours at RT. Thereafter, treated 1×10^5 pfu were injected intraperitoneally into five mice for each concentration. […] During this attenuated infection, the mouse immune system had sufficient time to recognize the virus as a foreign antigen and generate antibodies specific for the virus. Moreover, since the attenuated MCMV-Luc was whole viral particles, they contained all possible antigens relevant to priming a protective humeral response. As expected, the MCMV-Luc viral particles that were not treated with CM treatment replicated rapidly in the host mice, as observed by IVIS imaging in FIG. 4B.

[5] = tested on: VZV-Luc; assay: CM treated VZV-Luc growth in human fetal skin implants of SCID-hu mouse model; assay type: in vivo; conditions: for VZV growth in implanted skin tissues: 10^3 PFU, 12 days
Description: SCID mice of arbitrary sex, 6-8 weeks old were used to produce the SCID-hu mouse model by implanting human fetal skin under the mouse skin as described previously to study the therapeutic efficacy of CM on the VZV replication and attenuation. The human fetal skin tissues were acquired from Advance Biosciences Resources (Alameda, CA) and processed as described previously (Selariu, Anca et al. “ORF7 of varicella-zoster virus is a neurotropic factor.” Journal of virology vol. 86, 16 (2012): 8614-24.). The VZV-Luc was treated with CM of 10.0 μM, and 1.0 μM followed by washing with DMEM media to remove CM. The acyclovir (30 mg/kg) was used as a positive control. VZV-Luc treated with drug vehicle was used as a mock. The viral load was determined every 48 hours as total photon counts in the infected implanted tissues. The total photon counts were determined using IVIS imaging of infected animals as represented in FIGS. 10A and 10B. The image of one mouse from each group is shown in FIG. 10B after 12 days of post-treatment. Four weeks after implantation, the implanted human tissues were surgically exposed and inoculated with 10^3 PFU of VZV-Luc. Luciferase activity within the implants was measured every 48 h for 12 days using the IVIS200 imaging system and Live Image software.

[6] = VZV-Luc treated with 10.0 μM CM

COc1cc2cc(C(=O)Nc3cc(N)c4ccccc4c3CCCl)[nH]c2c(OC)c1OC [CM, centanamycin]
AD169-GFP infection and replication (GFP fluorescence) ([1]; virus treated with 1 μM CM): detected in the infected cells but did not replicate | AD169-GFP infection and replication (GFP fluorescence) ([1]; virus treated with 10 μM CM): not able to infect the cells | AD169-GFP infection and replication (GFP fluorescence) ([1]; virus treated with 100 μM CM): not detected in the infected cells | Viral gDNA bands on 0.6% agarose gel, treated versus untreated ([2]; AD169 viral gDNA, 1 μM CM, two hours at RT): no big differences in the viral gDNA bands, mobility, and gel pattern | EcoR1 digestion pattern of CM treated viral gDNA ([2]; CM two hours at RT, then EcoR1): no major missing bands | Thermolabile alkylation: state of CM treated viral DNA on incubation at 50° C. ([2]; incubation at 50° C.): experienced fragmentation at 50 °C | MCMV-Luc infection and replication (luciferase expression) ([3]; virus treated with 0.01 μM CM): able to grow and replicate but slower than untreated | MCMV-Luc infection and replication (luciferase expression) ([3]; virus treated with 1.0 μM CM): allowed the virus to infect host cells but not replicate | MCMV-Luc infection and replication (luciferase expression) ([3]; virus treated with 10 μM CM): did not allow the MCMV-Luc to infect the cells | MCMV-Luc infection and replication in mice (IVIS) ([4]; virus treated with 0.1 μM CM): able to infect the mice but did not replicate further from the site of infection | MCMV-Luc infection and replication in mice (IVIS) ([4]; virus treated with 1 μM CM): able to infect the mice but did not replicate further from the site of infection | MCMV-Luc infection and replication in mice (IVIS) ([4]; virus treated with 10 μM CM): did not infect the mice | VZV growth in implanted skin tissues ([5]; VZV-Luc treated with 1.0 μM CM): growing very slowly and have growth defects | Luciferase activity (viral load) in implanted tissues [5, 6]: no luciferase activity in implanted tissues | VZV growth in implanted skin tissues [5, 6]: did not grow in skin implants
